Measured values published in patent publication US10251395B2, “Substituted furano-/thienocycloalkylamino-2-pyrimidine derivatives and use thereof for controlling undesired plant growth” (Bayer CropScience Aktiengesellschaft, priority 2015, dated 2019).

Assays:
Assay type in all cases: in vivo
[1] = test system: Veronica persica; assay: Post-emergence herbicidal effect; settings: 320 g/ha, assessed visually after about 3 weeks vs untreated controls
Text: (§1) • ABUTH: Abutilon theophrasti ALOMY: Alopecurus myosuroides • AMARE: Amaranthus retroflexus AVEFA: Avena fatua • CYPES: Cyperus esculentus ECHCG: Echinochloa crus-galli • LOLMU: Lolium multiflorum MATIN: Matricaria inodora • PHBPU: Ipomoea purpurea POLCO: Polygonum convolvulus • SETVI: Setaria viridis STEME: Stellaria media • VERPE: Veronica persica VIOTR: Viola tricolor Seeds of monocotyledonous and dicotyledonous weed and crop plants are laid out in sandy loam in wood-fiber pots, covered with soil and cultivated in a greenhouse under good growth conditions. 2 to 3 weeks after sowing, the test plants are treated at the one-leaf stage. The compounds of the invention, formulated in the form of wettable powders (WP) or as emulsion concentrates (EC), are then sprayed onto the green parts of the plants as aqueous suspension or emulsion at a water application rate equating to 600 to 800 L/ha with addition of 0.2% wetting agent. After the test plants have been left to stand in the greenhouse under optimal growth conditions for about 3 weeks, the action of the preparations is assessed visually in comparison to untreated controls (herbicidal action in percent (%): 100% activity=the plants have died, 0% activity=like control plants).

[2] = test system: Abutilon theophrasti; assay: Post-emergence herbicidal effect; settings: assessed visually after about 3 weeks vs untreated controls
Text: as §1

[3] = test system: Setaria viridis; assay: Post-emergence herbicidal effect; settings: assessed visually after about 3 weeks vs untreated controls
Text: as §1

[4] = test system: Ipomoea purpurea; assay: Post-emergence herbicidal effect; settings: assessed visually after about 3 weeks vs untreated controls
Text: as §1

[5] = test system: Stellaria media; assay: Post-emergence herbicidal effect; settings: assessed visually after about 3 weeks vs untreated controls
Text: as §1

[6] = test system: Viola tricolor; assay: Post-emergence herbicidal effect; settings: assessed visually after about 3 weeks vs untreated controls
Text: as §1

[7] = test system: Echinochloa crus-galli; assay: Pre-emergence herbicidal effect; settings: Dosage 320 g/ha, scored visually after 3 weeks
Text: (§2) Seeds of monocotyledonous and dicotyledonous weed plants and crop plants are laid out in wood-fiber pots in sandy loam and covered with soil. The compounds of the invention, formulated in the form of wettable powders (WP) or as emulsion concentrates (EC), are then applied to the surface of the covering soil as aqueous suspension or emulsion at a water application rate equating to 600 to 800 L/ha with addition of 0.2% wetting agent.
(§3) After the treatment, the pots are placed in a greenhouse and kept under good growth conditions for the trial plants. The damage to the test plants is scored visually after a test period of 3 weeks by comparison with untreated controls (herbicidal activity in percent (%): 100% activity=the plants have died, 0% activity=like control plants).
(§4) • ABUTH: Abutilon theophrasti ALOMY: Alopecurus myosuroides • AMARE: Amaranthus retroflexus AVEFA: Avena fatua • CYPES: Cyperus esculentus ECHCG: Echinochloa crus-galli • LOLMU: Lolium multiflorum MATIN: Matricaria inodora • PHBPU: Ipomoea purpurea POLCO: Polygonum convolvulus • SETVI: Setaria viridis STEME: Stellaria media • VERPE: Veronica persica VIOTR: Viola tricolor

[8] = test system: Veronica persica; assay: Pre-emergence herbicidal effect; settings: scored visually after 3 weeks
Text: as §2, §3, §4

[9] = test system: Setaria viridis; assay: Pre-emergence herbicidal effect; settings: scored visually after 3 weeks
Text: as §2, §3, §4

[10] = test system: Stellaria media; assay: Pre-emergence herbicidal effect; settings: scored visually after 3 weeks
Text: as §2, §3, §4

[11] = test system: Polygonum convolvulus; assay: Pre-emergence herbicidal effect; settings: scored visually after 3 weeks
Text: as §2, §3, §4

[12] = test system: Lolium multiflorum; assay: Pre-emergence herbicidal effect; settings: Dosage 320 g/ha, scored visually after 3 weeks
Text: as §2, §3, §4

[13] = test system: Amaranthus retroflexus; assay: Pre-emergence herbicidal effect; settings: scored visually after 3 weeks
Text: as §2, §3, §4

[14] = test system: Alopecurus myosuroides; assay: Pre-emergence herbicidal effect; settings: scored visually after 3 weeks
Text: as §2, §3, §4

[15] = test system: Matricaria inodora; assay: Pre-emergence herbicidal effect; settings: scored visually after 3 weeks
Text: as §2, §3, §4

[16] = test system: Viola tricolor; assay: Pre-emergence herbicidal effect; settings: scored visually after 3 weeks
Text: as §2, §3, §4

[17] = test system: Amaranthus retroflexus; assay: Post-emergence herbicidal effect; settings: assessed visually after about 3 weeks vs untreated controls
Text: as §1

## C=C(c1cnc(NC2CCCc3sc(C)cc32)nc1N)C(F)(F)F (racemic) [compound 275]
[1]
  post-emergence efficacy VERPE: 90%
[2]; 80 g/ha
  post-emergence efficacy ABUTH: 80%
[2]; 320 g/ha
  post-emergence efficacy ABUTH: 90%
[3]; 80 g/ha
  post-emergence efficacy SETVI: 70%
[3]; 320 g/ha
  post-emergence efficacy SETVI: 80%
[4]; 320 g/ha
  post-emergence efficacy PHBPU: 70%
[5]; 80 g/ha
  post-emergence efficacy STEME: 90%
[5]; 320 g/ha
  post-emergence efficacy STEME: 90%
[6]; 80 g/ha
  post-emergence efficacy VIOTR: 70%
[6]; 320 g/ha
  post-emergence efficacy VIOTR: 90%
[7]
  ECHCG pre-emergence efficacy (herbicidal activity): 100%
[8]; Dosage 80 g/ha
  VERPE pre-emergence efficacy (herbicidal activity): 100%
[8]; Dosage 320 g/ha
  VERPE pre-emergence efficacy (herbicidal activity): 100%
[9]; Dosage 80 g/ha
  SETVI pre-emergence efficacy (herbicidal activity): 90%
[9]; Dosage 320 g/ha
  SETVI pre-emergence efficacy (herbicidal activity): 100%
[10]; Dosage 80 g/ha
  STEME pre-emergence efficacy (herbicidal activity): 100%
[10]; Dosage 320 g/ha
  STEME pre-emergence efficacy (herbicidal activity): 100%
[11]; Dosage 320 g/ha
  POLCO pre-emergence efficacy (herbicidal activity): 70%
[12]
  LOLMU pre-emergence efficacy (herbicidal activity): 60%
[13]; Dosage 80 g/ha
  AMARE pre-emergence efficacy (herbicidal activity): 70%
[13]; Dosage 320 g/ha
  AMARE pre-emergence efficacy (herbicidal activity): 100%
[14]; Dosage 80 g/ha
  ALOMY pre-emergence efficacy (herbicidal activity): 80%
[14]; Dosage 320 g/ha
  ALOMY pre-emergence efficacy (herbicidal activity): 80%
[15]; Dosage 80 g/ha
  MATIN pre-emergence efficacy (herbicidal activity): 90%
[15]; Dosage 320 g/ha
  MATIN pre-emergence efficacy (herbicidal activity): 100%
[16]; Dosage 80 g/ha
  VIOTR pre-emergence efficacy (herbicidal activity): 100%
[16]; Dosage 320 g/ha
  VIOTR pre-emergence efficacy (herbicidal activity): 100%

## CCOC(=O)c1cnc(NC2CCCc3sc(C)cc32)nc1N (racemic) [compound 293]
[1]
  post-emergence efficacy VERPE: 90%
[4]; 80 g/ha
  post-emergence efficacy PHBPU: 80%
[4]; 320 g/ha
  post-emergence efficacy PHBPU: 90%
[5]; 80 g/ha
  post-emergence efficacy STEME: 80%
[5]; 320 g/ha
  post-emergence efficacy STEME: 100%
[6]; 80 g/ha
  post-emergence efficacy VIOTR: 70%
[6]; 320 g/ha
  post-emergence efficacy VIOTR: 90%
[7]
  ECHCG pre-emergence efficacy (herbicidal activity): 80%
[8]; Dosage 320 g/ha
  VERPE pre-emergence efficacy (herbicidal activity): 100%
[9]; Dosage 320 g/ha
  SETVI pre-emergence efficacy (herbicidal activity): 100%
[10]; Dosage 80 g/ha
  STEME pre-emergence efficacy (herbicidal activity): 100%
[10]; Dosage 320 g/ha
  STEME pre-emergence efficacy (herbicidal activity): 100%
[12]
  LOLMU pre-emergence efficacy (herbicidal activity): 60%
[13]; Dosage 320 g/ha
  AMARE pre-emergence efficacy (herbicidal activity): 100%
[14]; Dosage 320 g/ha
  ALOMY pre-emergence efficacy (herbicidal activity): 70%
[15]; Dosage 80 g/ha
  MATIN pre-emergence efficacy (herbicidal activity): 70%
[15]; Dosage 320 g/ha
  MATIN pre-emergence efficacy (herbicidal activity): 100%
[16]; Dosage 320 g/ha
  VIOTR pre-emergence efficacy (herbicidal activity): 100%

## Cc1cc2c(s1)CCCC2Nc1ncc(-c2cccc(C(F)(F)F)c2)c(N)n1 (racemic) [compound 294]
[1]
  post-emergence efficacy VERPE: 90%
[2]; 80 g/ha
  post-emergence efficacy ABUTH: 60%
[2]; 320 g/ha
  post-emergence efficacy ABUTH: 70%
[17]; 80 g/ha
  post-emergence efficacy AMARE: 70%
[17]; 320 g/ha
  post-emergence efficacy AMARE: 70%
[8]; Dosage 80 g/ha
  VERPE pre-emergence efficacy (herbicidal activity): 100%
[8]; Dosage 320 g/ha
  VERPE pre-emergence efficacy (herbicidal activity): 100%
[10]; Dosage 80 g/ha
  STEME pre-emergence efficacy (herbicidal activity): 100%
[10]; Dosage 320 g/ha
  STEME pre-emergence efficacy (herbicidal activity): 100%
[11]; Dosage 80 g/ha
  POLCO pre-emergence efficacy (herbicidal activity): 70%
[11]; Dosage 320 g/ha
  POLCO pre-emergence efficacy (herbicidal activity): 80%
[12]
  LOLMU pre-emergence efficacy (herbicidal activity): 100%
[14]; Dosage 80 g/ha
  ALOMY pre-emergence efficacy (herbicidal activity): 70%
[14]; Dosage 320 g/ha
  ALOMY pre-emergence efficacy (herbicidal activity): 100%
[15]; Dosage 80 g/ha
  MATIN pre-emergence efficacy (herbicidal activity): 90%
[15]; Dosage 320 g/ha
  MATIN pre-emergence efficacy (herbicidal activity): 100%
[16]; Dosage 80 g/ha
  VIOTR pre-emergence efficacy (herbicidal activity): 80%
[16]; Dosage 320 g/ha
  VIOTR pre-emergence efficacy (herbicidal activity): 90%

## CN=C(C)c1cnc(NC2CCCc3sc(C)cc32)nc1N (stereo not shown) [compound 352]
[1]
  post-emergence efficacy VERPE: 100%
[2]; 80 g/ha
  post-emergence efficacy ABUTH: 80%
[2]; 320 g/ha
  post-emergence efficacy ABUTH: 90%
[3]; 320 g/ha
  post-emergence efficacy SETVI: 80%
[6]; 80 g/ha
  post-emergence efficacy VIOTR: 80%
[6]; 320 g/ha
  post-emergence efficacy VIOTR: 90%
[8]; Dosage 80 g/ha
  VERPE pre-emergence efficacy (herbicidal activity): 100%
[8]; Dosage 320 g/ha
  VERPE pre-emergence efficacy (herbicidal activity): 100%
[9]; Dosage 320 g/ha
  SETVI pre-emergence efficacy (herbicidal activity): 100%
[10]; Dosage 80 g/ha
  STEME pre-emergence efficacy (herbicidal activity): 100%
[10]; Dosage 320 g/ha
  STEME pre-emergence efficacy (herbicidal activity): 100%
[11]; Dosage 80 g/ha
  POLCO pre-emergence efficacy (herbicidal activity): 60%
[11]; Dosage 320 g/ha
  POLCO pre-emergence efficacy (herbicidal activity): 60%
[12]
  LOLMU pre-emergence efficacy (herbicidal activity): 60%
[13]; Dosage 320 g/ha
  AMARE pre-emergence efficacy (herbicidal activity): 100%
[15]; Dosage 80 g/ha
  MATIN pre-emergence efficacy (herbicidal activity): 90%
[15]; Dosage 320 g/ha
  MATIN pre-emergence efficacy (herbicidal activity): 90%
[16]; Dosage 80 g/ha
  VIOTR pre-emergence efficacy (herbicidal activity): 80%
[16]; Dosage 320 g/ha
  VIOTR pre-emergence efficacy (herbicidal activity): 100%
